Laboratory results published in PubChem BioAssay AID192 (DTP/NCI, 2004).
Toxic doses and inconclusive results are not listed. Rule for the calls: active = survival T/C of 150% or more; inactive = T/C below 125% in these data.

Tested on: BDF1 mice, B16 melanoma ip, median survival T/C
Experiment: NCI In Vivo Anticancer Drug Screen. Data for tumor model B16 Melanoma (intraperitoneal) in B6D2F1 (BDF1) mice
Details: endpoint: median survival time, higher = longer survival
Outline: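 Transplantable tumor model; survival or tumor size measured; reported as T/C, treated over vehicle control.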

[1] = dose: 25.0 mg/kg/injection, schedule: Q01DX009 (ip), vehicle: Klucel (hydroxypropylcellulose) (HPC)
[2] = dose: 50.0 mg/kg/injection, schedule: Q01DX009 (ip), vehicle: Klucel (hydroxypropylcellulose) (HPC)
[3] = dose: 12.5 mg/kg/injection, schedule: Q01DX009 (ip), vehicle: saline
[4] = dose: 25.0 mg/kg/injection, schedule: Q01DX009 (ip), vehicle: saline
[5] = dose: 50.0 mg/kg/injection, schedule: Q01DX009 (ip), vehicle: saline
[6] = dose: 100.0 mg/kg/injection, schedule: Q01DX009 (ip), vehicle: saline
[7] = dose: 100.0 mg/kg/injection, schedule: Q01DX009 (ip), vehicle: Klucel (hydroxypropylcellulose) (HPC)
[8] = dose: 200.0 mg/kg/injection, schedule: Q01DX009 (ip), vehicle: Klucel (hydroxypropylcellulose) (HPC)
[9] = dose: 400.0 mg/kg/injection, schedule: Q01DX009 (ip), vehicle: Klucel (hydroxypropylcellulose) (HPC)
[10] = dose: 50.0 mg/kg/injection, schedule: Q01DX009 (ip), vehicle: saline with Tween-80
[11] = dose: 100.0 mg/kg/injection, schedule: Q01DX009 (ip), vehicle: saline with Tween-80
[12] = dose: 200.0 mg/kg/injection, schedule: Q01DX009 (ip), vehicle: saline with Tween-80
[13] = dose: 400.0 mg/kg/injection, schedule: Q01DX009 (ip), vehicle: saline with Tween-80
[14] = dose: 37.5 mg/kg/injection, schedule: Q01DX009 (ip), vehicle: saline
[15] = dose: 12.5 mg/kg/injection, schedule: Q01DX009 (ip), vehicle: saline with Tween-80
[16] = dose: 25.0 mg/kg/injection, schedule: Q01DX009 (ip), vehicle: saline with Tween-80

Measured: T/C

Cc1c2cc3c(c1O)C(=O)CC(O3)c1ccc(O)c(c1)-c1cccc(c1O)C(=O)OCC1OC(O2)C(O)C(O)C1O (stereo not drawn)
inactive: dose: 0.13 mg/kg/injection, schedule: Q01DX009 (ip), vehicle: Klucel (hydroxypropylcellulose) (HPC) 93 % of control | dose: 0.25 mg/kg/injection, schedule: Q01DX009 (ip), vehicle: Klucel (hydroxypropylcellulose) (HPC) 95 % of control | dose: 0.5 mg/kg/injection, schedule: Q01DX009 (ip), vehicle: Klucel (hydroxypropylcellulose) (HPC) 89 % of control | dose: 1.0 mg/kg/injection, schedule: Q01DX009 (ip), vehicle: Klucel (hydroxypropylcellulose) (HPC) 88 % of control

CC[CH](C)[Hg][c]1cccc2ccccc12 (stereo not drawn)
inactive: [1] 105 % of control | [2] 91 % of control

CC(C)N(Cc1ccccc1)CC(O)c1ccc(Cl)cc1 (stereo not drawn)
inactive: [3] 94 % of control | [4] 86 % of control | [5] 101 % of control

COc1ccc(Oc2cc(CC3c4cc(OC)c(OC)cc4CCN3C)c([N+](=O)[O-])cc2OC)cc1OC (stereo not drawn)
inactive: [3] 100 % of control | [4] 100 % of control | [5] 98 % of control

CC(=O)OCC(=O)[C@@]12OC(C)(C)O[C@@H]1C[C@H]1[C@@H]3CC(C=O)=C4C=C(OCCCl)CC[C@]4(C)[C@@]3(F)[C@@H](O)C[C@@]12C
inactive: dose: 25.0 mg/kg/injection, schedule: Q04DX003 (ip), vehicle: saline with Tween-80 111 % of control | dose: 50.0 mg/kg/injection, schedule: Q04DX003 (ip), vehicle: saline with Tween-80 112 % of control | dose: 100.0 mg/kg/injection, schedule: Q04DX003 (ip), vehicle: saline with Tween-80 115 % of control | dose: 200.0 mg/kg/injection, schedule: Q04DX003 (ip), vehicle: saline with Tween-80 110 % of control | dose: 400.0 mg/kg/injection, schedule: Q04DX003 (ip), vehicle: saline with Tween-80 109 % of control

CCC1C(=O)NC(=O)C1(C)c1ccccc1 (stereo not drawn)
inactive: [4] 105 % of control | [5] 108 % of control | [6] 100 % of control | dose: 200.0 mg/kg/injection, schedule: Q01DX009 (ip), vehicle: saline 100 % of control

Cc1ccc(N=P(c2ccccc2)(c2ccccc2)c2ccccc2)cc1
inactive: [7] 94 % of control | [8] 108 % of control | [9] 91 % of control

CCOC(=O)C(NC(=O)NC)C(=O)OCC
inactive: dose: 75.0 mg/kg/injection, schedule: Q01DX009 (ip), vehicle: Klucel (hydroxypropylcellulose) (HPC) 102 % of control | dose: 150.0 mg/kg/injection, schedule: Q01DX009 (ip), vehicle: Klucel (hydroxypropylcellulose) (HPC) 103 % of control | dose: 300.0 mg/kg/injection, schedule: Q01DX009 (ip), vehicle: Klucel (hydroxypropylcellulose) (HPC) 100 % of control

CCOC(=O)c1ccc(NS(=O)c2ccccc2)cc1 (stereo not drawn)
inactive: [10] 105 % of control | [11] 91 % of control

N#CCCN(CCC#N)/N=N\c1nc[nH]c1C(N)=O
inactive: [10] 89 % of control | [11] 100 % of control | [12] 100 % of control | [13] 100 % of control

COC1C(O)CC(OC2C(C)OC(Oc3cc(O)c4c(O)c5c(cc4c3)C[C@@H]([C@H](OC)C(=O)[C@@H](O)[C@@H](C)O)[C@H](OC3CC(OC4CC(OC6CC(C)(O)C(O)C(C)O6)C(O)C(C)O4)C(O)C(C)O3)C5=O)CC2OC(C)=O)OC1C (stereo partly drawn)
inactive: [14] 110 % of control | dose: 75.0 mg/kg/injection, schedule: Q01DX009 (ip), vehicle: saline 113 % of control | dose: 150.0 mg/kg/injection, schedule: Q01DX009 (ip), vehicle: saline 111 % of control

COc1ccc(NC(=S)Nc2ccccn2)cc1
inactive: [7] 107 % of control | [11] 100 % of control | [8] 100 % of control | [12] 100 % of control | [9] 92 % of control

COc1ccccc1NC(=O)c1cc2ccccc2cc1O
inactive: [6] 121 % of control | dose: 400.0 mg/kg/injection, schedule: Q01DX009 (ip), vehicle: saline 118 % of control

COc1ccc2c(c1)CCC1=C2CCC2(C)C(=O)OC(=O)C12 (stereo not drawn)
inactive: [7] 103 % of control | [8] 96 % of control | [9] 100 % of control

ClC1CCC[N-]C1.ClC1CCC[N-]C1.O=C(O)CC(=O)O.[Pt+2] (stereo not drawn)
inactive: [15] 96 % of control | [16] 95 % of control | [10] 94 % of control | [11] 93 % of control | [12] 89 % of control

CCOC(=O)N(NC(=O)c1ccccc1)C(C)=O
inactive: dose: 6.25 mg/kg/injection, schedule: Q01DX009 (ip), vehicle: other 101 % of control | dose: 12.5 mg/kg/injection, schedule: Q01DX009 (ip), vehicle: other 99 % of control | dose: 25.0 mg/kg/injection, schedule: Q01DX009 (ip), vehicle: other 95 % of control | dose: 50.0 mg/kg/injection, schedule: Q01DX009 (ip), vehicle: other 95 % of control

O=C(CC(CC(=O)c1ccccc1)c1ccco1)c1ccccc1
inactive: [7] 93 % of control | [8] 93 % of control | [9] 93 % of control

CCN(CC)P(=O)(N1CC1C)N1CC1C (stereo not drawn)
inactive: dose: 9.3 mg/kg/injection, schedule: Q01DX009 (ip), vehicle: saline 123 % of control | dose: 18.7 mg/kg/injection, schedule: Q01DX009 (ip), vehicle: saline 112 % of control | [14] 99 % of control

Clc1ccc2sc3c(c2c1)CCNC3
inactive: dose: 12.5 mg/kg/injection, schedule: Q01DX009 (ip), vehicle: Klucel (hydroxypropylcellulose) (HPC) 94 % of control | [1] 111 % of control | [2] 111 % of control | [7] 105 % of control

COC(=O)[CH](C[N+](=O)[O-])[Hg][Cl] (stereo not drawn)
inactive: dose: 3.2 mg/kg/injection, schedule: Q01DX009 (ip), vehicle: saline with Tween-80 95 % of control | dose: 6.25 mg/kg/injection, schedule: Q01DX009 (ip), vehicle: saline 102 % of control | dose: 6.3 mg/kg/injection, schedule: Q01DX009 (ip), vehicle: saline with Tween-80 91 % of control | [15] 89 % of control | [3] 93 % of control | dose: 12.5 mg/kg/injection, schedule: Q04DX003 (ip), vehicle: Klucel (hydroxypropylcellulose) (HPC) 94 % of control | [4] 89 % of control | dose: 25.0 mg/kg/injection, schedule: Q04DX003 (ip), vehicle: Klucel (hydroxypropylcellulose) (HPC) 92 % of control

c1cc[c]([Sn]([S][Sn]([c]2ccccc2)([c]2ccccc2)[c]2ccccc2)([c]2ccccc2)[c]2ccccc2)cc1
inactive: [10] 99 % of control | [11] 93 % of control | [12] 92 % of control | [13] 86 % of control

O=C1CSC2=NCCN12
inactive: dose: 50.0 mg/kg/injection, schedule: Q01DX009 (ip), vehicle: suspension in saline 99 % of control | dose: 100.0 mg/kg/injection, schedule: Q01DX009 (ip), vehicle: suspension in saline 113 % of control | dose: 200.0 mg/kg/injection, schedule: Q01DX009 (ip), vehicle: suspension in saline 111 % of control

O=S(=O)(O)SCCNCCCCCC1CCCCC1
inactive: dose: 0.75 mg/kg/injection, schedule: Q01DX009 (ip), vehicle: saline with Tween-80 90 % of control | dose: 1.5 mg/kg/injection, schedule: Q01DX009 (ip), vehicle: saline with Tween-80 95 % of control | dose: 3.0 mg/kg/injection, schedule: Q01DX009 (ip), vehicle: saline with Tween-80 93 % of control | dose: 6.0 mg/kg/injection, schedule: Q01DX009 (ip), vehicle: saline with Tween-80 104 % of control | dose: 12.0 mg/kg/injection, schedule: Q01DX009 (ip), vehicle: saline with Tween-80 100 % of control

O=[N+]([O-])c1cc([N+](=O)[O-])c(Nn2c3ccccc3c3ccccc32)c([N+](=O)[O-])c1
inactive: [15] 86 % of control | [16] 88 % of control | [10] 93 % of control
